The values that follow come from patent publication US6825354B2 (Wyeth Holdings Corporation, priority 1999, dated 2004).

Where two headings read alike, the source gives them in different places.

The subject of test [1] is THP-1 cells (soluble TNF-α). Kind of test: Human monocytic THP-1 cell differentiation assay for soluble proteins (THP soluble protein assay). The class given is cell-based. The settings on record: negative = less TNF-α; for inhibition at 3 µM: Homo sapiens, THP-1, percent change from vehicle positive control, read-out: TNFalpha at 3 uM, THP (percent change); for TNFalpha at 3 uM, THP (percent change): percent change from vehicle positive control. The text has this:
Mitogenic stimulation of THP-1 cells cause differentiation into macrophage like cells with concomitant secretion of tumor necrosis factor (TNF-a) and TNF receptor (TNF-R p75/80 and TNF-R p55/60) and Interleukin-8 (IL-8), among other proteins. […] The release of membrane bound TNF-a and possibly TNF-R p75/80 and TNF-R p55/60, but not IL-8, is mediated by an enzyme called TNF-α converting enzyme or TACE.
THP-1 cells (from ATCC) are a human monocytic cell line which were obtained from the peripheral blood of a person with acute monocytic leukemia They can be grown in culture and differentiated into macrophage like cells by stimulation with mitogens.
Each vial of cells are cultured for about two weeks prior to being used for an assay and then are used for only 4 to 6 weeks to screen compounds.
Cell exposure to DMSO was limited to 0.1% final concentration. […] Compounds can be evaluated for their effect on basal (non-stimulated) shedding of the receptors by replacing the LPS with […] of THP-1 media Plates are placed into an incubator set at 5% CO2 and at 37° C. After 4 hours of incubation, […] of tissue culture supernatant (TCS) is removed for use in an TNF-α ELISA. Following 24 hours of incubation, […] of TCS is removed and used for analysis in TNF-R p75/80, TNF-R p55/60 and IL-8 ELISAs.
In addition, at the 24 hours timepoint, and the cells for each treatment group are collected by resuspension in 500 μl/well of THP-1 media and transferred into a FACS tube. […] The samples are run on a Becton Dickinson FaxCaliber FLOW cytometry machine and the amount of dye taken up by each cell is measured in the high red wavelength (FL3). Only cells with compromised membranes (dead or dying) can take up PI. The percent of live cells is calculated by the number of cells not stained with PI, divided by the total number of cells in the sample. The viability values calculated for the drug treated groups were compared to the viability value calculated for the vehicle treated mitogen stimulated group (“vehicle positive control”) to determine the “percent change from control”. This “percent change from control” value is an indicator of drug toxicity.
The quantity of soluble TNF-α, TNF-R p75/80 and TNF-R p55/60 and IL-8 in the TCS of the ThP-1 cell cultures are obtained with commercially available ELISAs from R&D Systems, by extrapolation from a standard curve generated with kit standards. The number of cells that either take up or exclude PI are measured by the FLOW cytometry machine and visualized by histograms using commercially available Cytologic software for each treatment group including all controls.
Biological variability in the magnitude of the response of THP-1 cell cultures requires that experiments be compared on the basis of percent change from “vehicle positive control” for each drug concentration. Percent change in each soluble protein evaluated from the “vehicle positive control” was calculated for each compound concentration with the following formula: [formula]
For the soluble protein (TNF-a, p75/80, p55/60, IL-8) studies under stimulated conditions, the mean pg/ml of duplicate wells were determined and the results expressed as percent change from “vehicle positive control”. For the soluble protein (p75/80 and p55/60 receptors) studies under non-stimulated conditions, the mean pglml of duplicate wells were determined and the results expressed as percent change from “vehicle positive control” utilizing the following formula: [formula]
IC50 values for each compound are calculated by non-linear regression analysis using customized software utilizing the JUMP statistical package.
For the cell viability studies, the viabilities (PI exclusion) of pooled duplicate wells were determined and the results expressed as % change from “vehicle positive control”.

Test [2] concerns the target T1, MMP-1 (Homo sapiens, UniProt P03956).
T1 sequence (P03956 100-469): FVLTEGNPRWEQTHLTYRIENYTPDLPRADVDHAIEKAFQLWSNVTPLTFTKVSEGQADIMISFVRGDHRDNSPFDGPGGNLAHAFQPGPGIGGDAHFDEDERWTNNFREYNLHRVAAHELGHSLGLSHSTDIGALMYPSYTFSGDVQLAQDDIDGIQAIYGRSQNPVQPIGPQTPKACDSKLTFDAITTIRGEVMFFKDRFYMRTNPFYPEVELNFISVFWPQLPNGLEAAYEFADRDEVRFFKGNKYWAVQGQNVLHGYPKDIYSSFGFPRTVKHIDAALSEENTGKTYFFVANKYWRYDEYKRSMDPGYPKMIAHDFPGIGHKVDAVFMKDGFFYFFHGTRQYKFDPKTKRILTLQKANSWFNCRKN
Briefly: MMP-1 inhibition, thiopeptide or fluorescent peptide substrate. The class given is biochemical. The settings on record: Table 1, second part; for IC50: read-out: MMP1 IC50; for inhibition at 10 µM: read-out: MMP1 % @ 10 μM. On the procedure:
(§1) The enzyme activity is measured by the rate of the color increase. The thiopeptide substrate is made up fresh as a 20 mM stock in 100% DMSO and the DTNB is dissolved in 100% DMSO as a 100 mM stock and stored in the dark at room temperature. Both the substrate and DTNB are diluted together to 1 mM with substrate buffer (50 mM HEPES pH 7.5, 5 mM CaCl2) before use. The stock of enzyme is diluted with buffer (50 mM HEPES, pH 7.5, 5 mM CaC12, 0.02% Brij) to the desired final concentration.
(§2) Alternatively, a fluorescent peptide substrate is used. In this test procedure, the peptide substrate contains a fluorescent group and a quenching group. Upon cleavage of the substrate by an MMP, the fluorescence that is generated is quantitated on the fluorescence plate reader. The assay is run in HCBC assay buffer (50 mM HEPES, pH 7.0, 5 mM Ca^+2, 0.02% Brij, 0.5% Cysteine), with human recombinant MMP-1, MMP-9, or MMP-13. The substrate is dissolved in methanol and stored frozen in 1 mM aliquots. For the assay, substrate and enzymes are diluted in HCBC buffer to the desired concentrations. Compounds are added to the 96 well plate containing enzyme and the reaction is started by the addition of substrate.
(§3) For either the thiopeptide or fluorescent peptide test procedures, the slope of the line is calculated and represents the reaction rate. […] The mean (x±sem) of the control rate is calculated and compared for statistical significance (p<0.05) with drug-treated rates using Dunnett's multiple comparison test.

For test [3], the target named is MMP-9 (Homo sapiens, UniProt P14780). Briefly: MMP-9 inhibition, thiopeptide or fluorescent peptide substrate. The settings on record: for IC50: read-out: MMP9 IC50; for inhibition at 10 µM: read-out: MMP9 % @ 10 μM. Format: biochemical. The method, then:
as §1, §2, §3

The target in test [4] is TNF-α converting enzyme (TACE) (Homo sapiens, UniProt P78536). Kind of test: TACE inhibition, fluorescent peptidyl substrate. Format: biochemical. The method, then:
[…] The reaction is initiated by addition of a fluorescent peptidyl substrate (final concentration 100 μM) to each well and then shaking on a shaker for 5 sec.
The reaction is read (excitation 340 nm, emission 420 nm) for 10 min. and the increase in fluorescence over time is plotted as a linear line. The slope of the line is calculated and represents the reaction rate.
The mean (x±sem) of the control rate is calculated and compared for statistical significance (p<0.05) with drug-treated rates using Dunnett's multiple comparison test.

The target in test [5] is MMP-13 (Homo sapiens, UniProt P45452). Kind of test: MMP-13 inhibition, thiopeptide or fluorescent peptide substrate. The class given is biochemical. Conditions: for IC50: read-out: MMP13 IC50; for inhibition at 10 µM: read-out: MMP13 % @ 10 μM. On the procedure: as §1, §2, §3
The mark [6] stands for this setting: Table 1, second part, footnote a: IC50 (nM), read-out: TACE IC50.

Chain of MMP-9 (P14780 94-707): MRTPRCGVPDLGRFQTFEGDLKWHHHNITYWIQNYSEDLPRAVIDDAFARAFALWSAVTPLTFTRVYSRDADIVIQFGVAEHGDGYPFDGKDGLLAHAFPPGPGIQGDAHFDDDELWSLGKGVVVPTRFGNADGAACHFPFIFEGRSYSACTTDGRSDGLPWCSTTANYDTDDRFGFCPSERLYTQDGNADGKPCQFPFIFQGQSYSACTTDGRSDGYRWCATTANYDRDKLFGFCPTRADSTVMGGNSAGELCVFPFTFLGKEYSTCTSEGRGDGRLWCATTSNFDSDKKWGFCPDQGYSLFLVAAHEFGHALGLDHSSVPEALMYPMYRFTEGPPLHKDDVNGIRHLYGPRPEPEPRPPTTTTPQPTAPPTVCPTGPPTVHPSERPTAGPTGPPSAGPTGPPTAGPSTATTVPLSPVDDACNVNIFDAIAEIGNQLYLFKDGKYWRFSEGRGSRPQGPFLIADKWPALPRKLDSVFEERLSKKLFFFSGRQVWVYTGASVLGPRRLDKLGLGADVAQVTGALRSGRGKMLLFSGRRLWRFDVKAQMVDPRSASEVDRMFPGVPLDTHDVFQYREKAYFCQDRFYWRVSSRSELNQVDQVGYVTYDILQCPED
Chain of TNF-α converting enzyme (TACE) (P78536 215-824): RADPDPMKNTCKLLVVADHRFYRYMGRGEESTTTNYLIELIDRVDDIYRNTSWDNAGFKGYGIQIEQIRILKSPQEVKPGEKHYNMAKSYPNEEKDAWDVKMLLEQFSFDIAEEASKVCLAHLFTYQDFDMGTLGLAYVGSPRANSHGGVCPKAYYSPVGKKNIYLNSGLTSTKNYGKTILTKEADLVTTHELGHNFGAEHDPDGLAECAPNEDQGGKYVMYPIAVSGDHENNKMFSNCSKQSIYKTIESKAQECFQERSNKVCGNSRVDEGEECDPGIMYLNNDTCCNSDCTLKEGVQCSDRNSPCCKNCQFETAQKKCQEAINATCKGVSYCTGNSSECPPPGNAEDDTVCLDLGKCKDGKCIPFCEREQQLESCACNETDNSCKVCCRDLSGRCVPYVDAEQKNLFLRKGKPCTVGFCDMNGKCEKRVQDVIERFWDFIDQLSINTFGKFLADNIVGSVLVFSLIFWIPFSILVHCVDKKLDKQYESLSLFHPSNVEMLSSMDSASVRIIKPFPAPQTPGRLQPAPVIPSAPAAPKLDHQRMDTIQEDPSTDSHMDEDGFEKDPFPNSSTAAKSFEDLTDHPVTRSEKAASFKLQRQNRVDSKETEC

Regarding `CC#CCOc1ccc([S+]([O-])C(C(=O)NO)c2ccc(OCC)cc2)cc1` (stereo not drawn) [Example 101, 2-{[4-(2-Butynyloxy)phenyl]sulfinyl}-N-hydroxy-2-(4-ethoxyphenyl)acetamide], the inhibition at 3 µM in test [1] is -1%.

One may read the IC50 as the concentration that gives 50% inhibition. For the compound `CC#CCOc1ccc([S+]([O-])[C@@H](C(=O)NO)C(C)C)cc1` (stereo partly drawn) [Example 108, R-2-{[4-(2-butynyloxy)phenyl]sulfinyl}-2-isopropyl-N-hydroxyacetamide], the “TNFalpha at 3 uM, THP (percent change)” value in test [1] was −29%. The half-inhibitory concentration (IC50) in test [2] came out at 6.48 µM; in test [3] (Table 1, second part) it was 399 nM.

`CC#CCOc1ccc(SC(C(=O)NO)c2cccc(Br)c2)cc1` (stereo not drawn) [Example 103, 2-{[4-(2-Butynyloxy)phenyl]sulfanyl}-N-hydroxy-2-(3-bromophenyl)acetamide]: the inhibition at 3 µM in test [1] was -15%.

`CC#CCOc1ccc(S(=O)(=O)C(CCCCCC)C(=O)NO)cc1` (stereo not drawn) [Example 5, 2-(4-But-2-ynyloxy-benzenelsulfonyl)-octanoic Acid Hydroxamide]: the IC50 came to 74.8 nM in test [4] (Table 1, first part, read-out: TACE IC50); 500 nM in test [5] (Table 1, first part); 2500 nM in test [3] (Table 1, first part).

Regarding `CC#CCOc1ccc([S+]([O-])C(C(=O)NO)c2ccccc2)cc1` (single isomer, unassigned) [Example 113, S-2-{[4-(2-butynyloxy)phenyl]sulfinyl}-2-phenyl-N-hydroxyacetamide], the inhibition at 3 µM in test [1] was determined as 4%. The inhibition at 10 µM in test [2] turned out to be 6.2%; in test [5] (Table 1, second part), 59%; in test [3] (Table 1, second part) it was 25.7%. Moreover, the IC50 in test [4] (setting [6]) was 162 nM.

`CC#CCOc1ccc(SC(C(=O)NO)c2ccc(OCC)cc2)cc1` (stereo not drawn) [Example 100, 2-{[4-(2-butynyloxy)phenyl]sulfanyl}-N-hydroxy-2-(4-ethoxyphenyl)acetamide]: the inhibition at 3 µM in test [1] is 0%.

Regarding `CC#CCOc1ccc([S+]([O-])C(C(=O)NO)c2cccc3ccccc23)cc1` (stereo not drawn) [Example 93, 2-{[4-(2-Butynyloxy)phenyl]sulfinyl}-N-hydroxy-2-(1-napthyl)acetamide], the “TNFalpha at 3 uM, THP (percent change)” value in test [1] came to 1%. In addition, in test [2], the “MMP1 % @ 10 μM” value is reported as 7%. For the same compound, in test [4] (Table 1, second part, footnote a: % @ 10 μM), the “TACE % @ 10 μM” value stood at 15.63%. The “MMP13 % @ 10 μM” value in test [5] (Table 1, second part) was 17%.

For the compound `CC#CCOc1ccc([S+]([O-])C(C(=O)NO)c2ccc(F)cc2)cc1` (stereo not drawn) [Example 96], the inhibition at 3 µM in test [1] came out at 12%. Moreover, the inhibition at 10 µM in test [2] is 18.4%; in test [5] (Table 1, second part) it was 53.4%; in test [3] (Table 1, second part), 0%. Moreover, in test [4] (setting [6]), the IC50 was 148 nM.

For the compound `CC#CCOc1ccc([S+]([O-])[C@@H](C(=O)NO)c2ccc(Br)cc2)cc1` (single isomer, unassigned) [Example 87], the inhibition at 3 µM in test [1] was -5%.

As for `CC#CCOc1ccc([S+]([O-])[C@@H](C(=O)NO)c2ccc(OC)cc2)cc1` (single isomer, unassigned) [Example 77], the inhibition at 3 µM in test [1] was 12%. Besides, the inhibition at 10 µM is 17.5% in test [2] and 45.4% in test [3] (Table 1, second part). Further, the IC50 in test [4] turned out to be 201 nM; in test [5] (Table 1, second part) it was 3690 nM.

As to `CC#CCOc1ccc([S+]([O-])C(C(=O)NO)C(C)C)cc1` (stereo not drawn) [Example 109, S-2-{[4-(2-butynyloxy)phenyl]sulfinyl}-2-isopropyl-N-hydroxyacetamide], in test [1], the “TNFalpha at 3 uM, THP (percent change)” value is recorded as −20%. The IC50 turned out to be 2.99 µM in test [2] and 893 nM in test [3] (Table 1, second part).

“2-{[4-(2-butynyloxy)phenyl]sulfonyl}-2-(4-chlorophenyl)-N-hydroxyacetamide [Example 102]”: the “TNFalpha at 3 uM, THP (percent change)” value in test [1] is given as −10%. The “MMP1 % @ 10 μM” value in test [2] is 26%. In addition, the IC50 in test [4] (setting [6]) came out at 82 nM. Further, in test [5] (Table 1, second part), the “MMP13 % @ 10 μM” value is on record as 71%.
